pKi: −log10 of the molar value.
Biological target: T1, Human CXCR4 transfected HEK293 cells (Homo sapiens, UniProt P61073)
T1 construct: expressed in transfected cells; host or cells: HEK293
Assay: CXCR4 functional calcium assay (calcium flux FLIPR, antagonism of SDF1 response)
Format: cell-based
Conditions: CXCR4 functional activity, antagonism of SDF1 (EC50 concentration), read-out: CXCR4 fKi
Outline: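 Dose-dependent antagonism of the SDF1 response was read by FLIPR as Fluo-4 calcium signal (2 μM dye) in CXCR4-expressing human HEK293 cells, in HBSS with probenecid, BSA and HEPES at pH 7.4 and 37° C. Test compound was given before an EC50-level SDF1 challenge. Curves were then fitted.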

T1 sequence (P61073 whole entry): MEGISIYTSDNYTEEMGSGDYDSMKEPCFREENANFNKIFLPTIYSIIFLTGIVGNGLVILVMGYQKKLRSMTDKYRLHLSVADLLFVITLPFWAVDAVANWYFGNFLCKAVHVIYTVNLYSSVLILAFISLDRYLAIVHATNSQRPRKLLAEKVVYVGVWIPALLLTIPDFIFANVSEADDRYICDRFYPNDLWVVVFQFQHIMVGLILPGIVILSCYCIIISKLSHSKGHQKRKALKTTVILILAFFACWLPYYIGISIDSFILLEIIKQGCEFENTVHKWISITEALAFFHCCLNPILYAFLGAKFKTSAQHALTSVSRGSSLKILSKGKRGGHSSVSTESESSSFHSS

`Clc1ccccc1CN1CCC(N2CCCN(c3nccs3)CC2)CC1` [Example 267, 1-{1-[(2-Chlorophenyl)methyl]piperidin-4-yl}-4-(1,3-thiazol-2-yl)-1,4-diazepane] and `COCCNC(=O)c1cccc(N2CCCN(C3CCN(Cc4ccccc4Cl)CC3)CC2)n1` [Example 50, 6-(4-{1-[(2-Chlorophenyl)methyl]piperidin-4-yl}-1,4-diazepan-1-yl)-N-(2-methoxyethyl)pyridine-2-carboxamide] fall in the same range of pKi: 6.30 to 7.00 for the first, 6.30 to 7.00 for the second.

`O=C(NCC1CC1)c1cccc(N2CCCN(C3CCN(C4CC4)CC3)CC2)n1` [Example 62, N-(Cyclopropylmethyl)-6-[4-(1-cyclopropylpiperidin-4-yl)-1,4-diazepan-1-yl]pyridine-2-carboxamide] and `CC(CF)N1CCC(N2CCCN(c3cccc(C(=O)NCC4CC4)n3)CC2)CC1` (stereo not shown) [Example 67, N-(Cyclopropylmethyl)-6-{4-[1-(1-fluoropropan-2-yl)piperidin-4-yl]-1,4-diazepan-1-yl}pyridine-2-carboxamide] fall in the same range of pKi: 6.00 to 6.30 for the first, 6.00 to 6.30 for the second.

`Cc1cnc(-c2cccc(N3CCCN(C4CCN(C(C)C)CC4)CC3)n2)[nH]1` [Example 107, 1-[6-(4-Methyl-1H-imidazol-2-yl)pyridine-2-yl]-4-[1-(propan-2-yl)piperidin-4-yl]-1,4-diazepane] and `CC(C)c1cnc(-c2cccc(N3CCCN(C4CCN(C(C)C)CC4)CC3)n2)[nH]1` [Example 110, 1-{6-[4-(Propan-2-yl)-1H-imidazol-2-yl]pyridine-2-yl}-4-[1-(propan-2-yl)piperidin-4-yl]-1,4-diazepane] fall in the same range of pKi: 7.00 to 7.70 for the first, 7.00 to 7.70 for the second.

First: Cc1cccc2nc(-c3cccc(N4CCCN(C5CCN(C(C)C)CC5)CC4)n3)[nH]c12 [Example 143, 7-Methyl-2-(6-{4-[1-(propan-2-yl)piperidin-4-yl]-1,4-diazepan-1-yl}pyridine-2-yl)-1H-1,3-benzodiazole]
Second: CC(C)N1CCC(N2CCCN(c3cccc(-c4nc5cccc(F)c5[nH]4)n3)CC2)CC1 [Example 142, 7-Fluoro-2-(6-{4-[1-(propan-2-yl)piperidin-4-yl]-1,4-diazepan-1-yl}pyridine-2-yl)-1H-1,3-benzodiazole]
The pKi of the first is lower: 6.30 to 7.00 for the first, 7.00 to 7.70 for the second.

Compared with `CC1CN(c2cccc(C(=O)Nc3ccncc3)n2)CCN(C2CCN(C(C)C)CC2)C1` (stereo not shown) [Example 182, 6-{6-Methyl-4-[1-(propan-2-yl)piperidin-4-yl]-1,4-diazepan-1-yl}-N-(pyridin-4-yl)pyridine-2-carboxamide], `CC[C@H](C)N1CCC(N2CCCN(c3cccc(C(=O)Nc4ccncc4)n3)CC2)CC1` [Example 79, 6-(4-{1-[(2S)-Butan-2-yl]piperidin-4-yl}-1,4-diazepan-1-yl)-N-(pyridine-4-yl)pyridine-2-carboxamide] is higher in pKi: 7.00 to 7.70 for the first, over 7.70 for the second. The second binds more tightly here.

First: CC(C)N1CCCC(N(C)CCN(C)c2cccc(C(=O)Nc3ccncc3)n2)CC1 (stereo not shown) [Example 238, 6-[Methyl(2-{methyl[1-(propan-2-yl)azepan-4-yl]amino}ethyl)amino]-N-(pyridin-4-yl)pyridine-2-carboxamide]
Second: [2H]C1([2H])CCN(C2CCN([C@H](C)CC)CC2)CCN1c1cccc(C(=O)Nc2ccncc2)n1 [Example 176, 6-(4-{1-[(2R)-Butan-2-yl]piperidin-4-yl}-7,7-dihydrogenio-1,4-diazepan-1-yl)-N-(pyridine-4-yl)pyridine-2-carboxamide]
The pKi of the first is lower: 6.30 to 7.00 for the first, over 7.70 for the second. The second binds more tightly here.

Compared with `CC(C)N1CCC(N2CCCN(c3cccc(C(=O)NCc4ccncc4)n3)CC2)CC1` [Example 36, 6-{4-[1-(Propan-2-yl)piperidin-4-yl]-1,4-diazepan-1-yl}-N-(pyridin-4-ylmethyl)pyridine-2-carboxamide], `CC(C)N1CCC(N2CCCN(c3cccc(C(=O)NCc4cnco4)n3)CC2)CC1` [Example 44, N-(1,3-Oxazol-5-ylmethyl)-6-{4-[1-(propan-2-yl)piperidin-4-yl]-1,4-diazepan-1-yl}pyridine-2-carboxamide] is lower in pKi: over 7.70 for the first, 7.00 to 7.70 for the second. The first binds more tightly here.

`O=C(Nc1ccncc1)c1cccc(N2CC3CCC(C2)N(C2CCN(Cc4ccccc4Cl)CC2)C3)n1` (stereo not shown) [Example 208, 6-(6-{1-[(2-Chlorophenyl)methyl]piperidin-4-yl}-3,6-diazabicyclo[3.2.2]nonan-3-yl)-N-(pyridin-4-yl)pyridine-2-carboxamide] and `O=C(Nc1ccncc1)c1cccc(N2CC3CCC(C2)N(C2CCN(Cc4ccc(F)cc4Cl)CC2)C3)n1` (stereo not shown) [Example 209, 6-(6-{1-[(2-Chloro-4-fluorophenyl)methyl]piperidin-4-yl}-3,6-diazabicyclo[3.2.2]nonan-3-yl)-N-(pyridin-4-yl)pyridine-2-carboxamide] fall in the same range of pKi: 6.30 to 7.00 for the first, 6.30 to 7.00 for the second.

Compared with `CCCc1nc(-c2cccc(N3CCCN(C4CCN(C(C)C)CC4)CC3)n2)no1` [Example 156, 1-[1-(Propan-2-yl)piperidin-4-yl]-4-[6-(5-propyl-1,2,4-oxadiazol-3-yl)pyridine-2-yl]-1,4-diazepane], `CCCCc1nc(-c2cccc(N3CCCN(C4CCN(C(C)C)CC4)CC3)n2)no1` [Example 157, 1-[6-(5-Butyl-1,2,4-oxadiazol-3-yl)pyridine-2-yl]-4-[1-(propan-2-yl)piperidin-4-yl]-1,4-diazepane] is lower in pKi: 7.00 to 7.70 for the first, 6.30 to 7.00 for the second. The first binds more tightly here.

First: CC(C)N1CCC(N2CCCN(c3cccc(C(=O)NCc4cccnc4)n3)CC2)C(F)C1 (stereo not shown) [Example 185, 6-{4-[3-Fluoro-1-(propan-2-yl)piperidin-4-yl]-1,4-diazepan-1-yl}-N-(pyridin-3-ylmethyl)pyridine-2-carboxamide]
Second: C[C@H](N1CCC(N2CCCN(c3cccc(C(=O)NCc4cccnc4)n3)CC2)CC1)C(F)(F)F [Example 89, N-(Pyridin-3-ylmethyl)-6-(4-{1-[(2S)-1,1,1-trifluoropropan-2-yl]piperidin-4-yl}-1,4-diazepan-1-yl)pyridine-2-carboxamide]
The pKi of the first is lower: 6.30 to 7.00 for the first, 7.00 to 7.70 for the second.

`O=C(NCCCn1ccnc1)c1cccc(N2CCCN(C3CCN(Cc4ccccc4Cl)CC3)CC2)n1` [Example 139, 6-(4-{1-[(2-Chlorophenyl)methyl]piperidin-4-yl}-1,4-diazepan-1-yl)-N-[3-(1H-imidazol-1-yl)propyl]pyridine-2-carboxamide] and `CC(C)N1CCC(N2CCCN(c3cccc(C(=O)NCCCn4ccnc4)n3)CC2)CC1` [Example 3, N-[3-(1H-Imidazol-1-yl)propyl]-6-{4-[1-(propan-2-yl)piperidin-4-yl]-1,4-diazepan-1-yl}pyridine-2-carboxamide] fall in the same range of pKi: 6.30 to 7.00 for the first, 6.30 to 7.00 for the second.

`CC(C)N1CCC(N2CCCN(c3cccc(-c4nc(-c5ccccc5)no4)n3)CC2)CC1` [Example 170, 1-[6-(3-Phenyl-1,2,4-oxadiazol-5-yl)pyridin-2-yl]-4-[1-(propan-2-yl)piperidin-4-yl]-1,4-diazepane] and `CC(C)N1CCC(N2CCCN(c3cccc(-c4nnn(C)n4)n3)CC2)CC1` [Example 168, 1-[6-(2-Methyl-2H-1,2,3,4-tetrazol-5-yl)pyridin-2-yl]-4-[1-(propan-2-yl)piperidin-4-yl]-1,4-diazepane] fall in the same range of pKi: 6.30 to 7.00 for the first, 6.30 to 7.00 for the second.

`CC(C)N1CCC(N2CCCN(c3cccc(C(=O)NCC(F)F)n3)CC2)CC1` [Example 9, N-(2,2-Difluoroethyl)-6-{4-[1-(propan-2-yl)piperidin-4-yl]-1,4-diazepan-1-yl}pyridine-2-carboxamide] and `CCNC(=O)c1cccc(N2CCCN(C3CCN(C(C)C)CC3)CC2)n1` [Example 4, N-Ethyl-6-{4-[1-(propan-2-yl)piperidin-4-yl]-1,4-diazepan-1-yl}pyridine-2-carboxamide] fall in the same range of pKi: 6.30 to 7.00 for the first, 6.30 to 7.00 for the second.

`c1cc(NCCNCCCNC2CCCC2)nc(-c2ncc(C3CC3)[nH]2)c1` [Example 237, N-(2-{[3-(Cyclopentylamino)propyl]amino}ethyl)-6-(5-cyclopropyl-1H-imidazol-2-yl)pyridin-2-amine] and `O=C(NCC1CC1)c1cccc(N2CCCN(C3CCN(Cc4ccc(F)cc4)CC3)CC2)n1` [Example 130, N-(Cyclopropylmethyl)-6-(4-{1-[(4-fluorophenyl)methyl]piperidin-4-yl}-1,4-diazepan-1-yl)pyridine-2-carboxamide] fall in the same range of pKi: 6.30 to 7.00 for the first, 6.30 to 7.00 for the second.

Compared with `O=C(NCC1CC1)c1cccc(N2CCCN(C3CCN([C@@H]4CCc5ccccc54)CC3)CC2)n1` [Example 76, N-(Cyclopropylmethyl)-6-(4-{1-[(1R)-2,3-dihydro-1H-inden-1-yl]piperidin-4-yl}-1,4-diazepan-1-yl)pyridine-2-carboxamide], `CC(C(F)F)N1CCC(N2CCCN(c3cccc(C(=O)NCC4CC4)n3)CC2)CC1` (stereo not shown) [Example 68, N-(Cyclopropylmethyl)-6-{4-[1-(1,1-difluoropropan-2-yl)piperidin-4-yl]-1,4-diazepan-1-yl}pyridine-2-carboxamide] is lower in pKi: 7.00 to 7.70 for the first, 6.30 to 7.00 for the second.

Compared with `CC(C)N1CCOCC1CCN1CCCN(c2cccc(C(=O)Nc3ccncc3)n2)CC1` (stereo not shown) [Example 201, 6-(4-{2-[4-(Propan-2-yl)morpholin-3-yl]ethyl}-1,4-diazepan-1-yl)-N-(pyridin-4-yl)pyridine 2-carboxamide], `[2H]C1([2H])CCN(c2cccc(C(=O)Nc3ccncc3)n2)CC(C)N1C1CCN([C@@H](C)C(F)(F)F)CC1` (stereo partly drawn) [Example 196, 6-(5,5-Dihydrogenio-3-methyl-4-{1-[(2S)-1,1,1-trifluoropropan-2-yl]piperidin-4-yl}-1,4-diazepan-1-yl)-N-(pyridin-4-yl)pyridine-2-carboxamide] is higher in pKi: 6.30 to 7.00 for the first, 7.00 to 7.70 for the second.

Compared with `CCCCNC(=O)c1cccc(N2CCCN(C3CCN(C(C)C)CC3)CC2)n1` [Example 7, N-Butyl-6-{4-[1-(propan-2-yl)piperidin-4-yl]-1,4-diazepan-1-yl}pyridine-2-carboxamide], `O=C(NCC1CC1)c1cccc(N2CCCN(C3CCN(C(CF)CF)CC3)CC2)n1` [Example 59, N-(Cyclopropylmethyl)-6-{4-[1-(1,3-difluoropropan-2-yl)piperidin-4-yl]-1,4-diazepan-1-yl}pyridine-2-carboxamide] is lower in pKi: 7.00 to 7.70 for the first, 6.30 to 7.00 for the second. The first binds more tightly here.

Source: US10995091B2 (Proximagen, LLC, priority 2010, dated 2021)
